{"source": "patent US9339460B2", "about": "“Self-emulsifiable liquid florfenicol composition intended to be incorporated into the drinking water of livestock” (VIRBAC SA, priority 2007, dated 2016)", "origin": "cited, not measured here", "conditions": "in water", "data": [{"compound": "CS(=O)(=O)c1ccc([C@@H](O)[C@@H](CF)NC(=O)C(Cl)Cl)cc1", "note": "[Florfenicol]", "values": [{"measurement": "\"miscibility\" of Florfenicol", "value": 12, "unit": "g/L"}]}]}
